Data set [1] deals with differentiated Caco-2 cell monolayers. The experiment in a line: Transepithelial transport and metabolism across differentiated Caco-2 cell monolayers. The note with it: for detected at the AP side, P7 tested within a mixture: AP solutions of differentiated Caco-2 collected after 120 min; for amount in the BL compartment after 60 min, peptide alone / amount in the BL compartment after 60 min, P7 in the mixture / absorbed amount after 2 h, P7 in the mixture: HPLC–Chip–MS/MS; for rate of transport, peptide alone: AP pH 6.0 (MES), BL pH 7.4. Type of data set: in vitro ADME, human. Here is the method:
For differentiation, Caco-2 cells were seeded on polycarbonate filters with a 12 mm diameter and 0.4 μm pore diameter (Transwell, Corning, Inc., Lowell, MA, U.S.A.) at a 3.5 × 10^5 cells/cm^2 density in complete medium supplemented with 10% FBS in both AP and BL compartments for 2 days to allow for the formation of a confluent cell monolayer. Starting from day 3 after seeding, cells were transferred to FBS-free medium in both compartments, supplemented with ITS [final concentration of 10 mg/L insulin (I), 5.5 mg/L transferrin (T), and 6.7 μg/L sodium selenite (S), GIBCO–Invitrogen, San Giuliano Milanese, Italy] only in the BL compartment, and allowed to differentiate for 18–21 days with regular medium changes 3 times weekly.[12]
The transepithelial electrical resistance (TEER) of differentiated Caco-2 cells was measured at 37 °C using the voltmeter apparatus Millicell (Millipore Co., Billerica, MA, U.S.A.), immediately before and at the end of the transport experiments. In addition, at the end of transport experiments, cells were incubated from the AP side with 1 mM phenol red in phosphate-buffered saline (PBS) containing Ca^2+ (0.9 mM) and Mg^2+ (0.5 mM) for 1 h at 37 °C, to monitor the paracellular permeability of the cell monolayer. The BL solutions were then collected, and NaOH (70 μL, 0.1 N) was added before reading the absorbance at 560 nm by a microplate reader Synergy H1 from Biotek (Winooski, VT, U.S.A.). Phenol red passage was quantified using a standard phenol red curve. Only filters showing TEER values and phenol red passages similar to untreated control cells were considered for peptide transport analysis.
Prior to experiments, the cell monolayer integrity and differentiation were checked by TEER measurement as described in detail above. Cells were then washed twice, and peptide transportation by intestinal cells was assayed. Transport experiments were performed in transport buffer solution (137 mM NaCl, 5.36 mM KCl, 1.26 mM CaCl2, 1.1 mM MgCl2, and 5.5 mM glucose) following conditions previously described.[13] To reproduce the pH conditions existing in vivo in the small intestinal mucosa, AP solutions were maintained at pH 6.0 (buffered with 10 mM morpholinoethanesulfonic acid) and BL solutions were maintained at pH 7.4 (buffered with 10 mM N-2-hydroxyethylpiperazine-N-4-[…]). Prior to transport experiments, cells were washed twice with 500 μL of PBS containing Ca^2+ and Mg^2+. Peptide transportation by mature Caco-2 cells was assayed by loading the AP compartment with P7 and/or LTFPG (500 μM) in the AP transport solution (500 μL) and the BL compartment with the BL transport solution (700 μL). The plates were incubated at 37 °C, and the BL solutions were collected at different time points (i.e., 15, 30, 60, 90, and 120 min) and replaced with fresh solutions prewarmed at 37 °C. All BL solutions together with the AP solutions collected at the end of the transport experiment were stored at −80 °C prior to analysis. Three independent transport experiments were performed, each in duplicate.
Quantitative analysis of P7 in the AP and BL samples were carried out by ion trap mass spectrometry (MS) in multiple reaction monitoring (MRM) mode, monitoring two of the most intense diagnostic transitions, after optimization of the acquisition parameters, such as retention time, MS profile, and tandem mass spectrometry (MS/MS) fragmentation spectrum.[14],[15] All further details regarding liquid chromatography–tandem mass spectrometry (LC–MS/MS) operating conditions and method validations are described in the Supporting Information.
The metabolic degradation products deriving from the hydrolytic activity of brush border membrane peptidases were investigated by an untargeted approach (for further details, see the Supporting Information). […]
For orientation: Caco-2 monolayers are a common model of the intestinal barrier.

A further data set concerns the target DPP-IV (Homo sapiens, UniProt P27487). The data set can be described thus: Stability of P7 in the presence of DPP-IV. The format is in vitro ADME. The note with it: P7 (500 μM) with purified recombinant DPP-IV, Tris–HCl pH 8.0, 37 °C, 5, 30 and 120 min; LC–MS MRM. Here is the method:
The experiments were carried out in microcentrifuge tubes. Each reaction (100 μL) was prepared by adding the reagents in the following order: 1× DPP-IV assay buffer [20 mM Tris–HCl at pH 8.0 containing 100 mM NaCl and 1 mM ethylenediaminetetraacetic acid (EDTA)] (80 μL), P7 solution (10 μL, 500 μM), and finally DPP-IV (10 μL). Subsequently, the samples were mixed and kept at 37 °C in a thermoblock for 5, 30, and 120 min. At the end of the reactions, DPP-IV was inactivated by adding 200 μL of precooled acetonitrile (ACN) to each tube; then the samples were centrifuged for 10 min at 13300g at 4 °C; and the supernatant was collected. P7 and LTFPG were loaded onto the enrichment column (Zorbax 300SB-C18, 5 μm pore size) at a flow rate of 4 μL/min using isocratic 100% C solvent phase (99% water, 1% ACN, and 0.1% formic acid). After the cleanup, P7 and LTFPG were separated on a 150 mm × 75 μm analytical column (Zorbax300SB-C18, 5 μm pore size) at the constant flow rate of 300 nL/min. The LC solvent A was 95% water, 5% ACN, and 0.1% formic acid; solvent B was 5% water, 95% ACN, and 0.1% formic acid. The nanopump gradient program was as follows: 5% solvent B (0 min), 70% solvent B (0–8 min), and back to 5% solvent B in 2 min. Post-time was 10 min. The drying gas temperature was 300 °C, and the flow rate was 3 L/min (nitrogen). Data acquisition occurred in positive ionization mode. […]

The target of data set [2] is purified human recombinant DPP-IV enzyme (Homo sapiens, UniProt P27487). The following applies: read-out: IC50, in vitro on the DPP-IV enzyme; cited from earlier work.
Chain of purified human recombinant DPP-IV enzyme (P27487 whole entry): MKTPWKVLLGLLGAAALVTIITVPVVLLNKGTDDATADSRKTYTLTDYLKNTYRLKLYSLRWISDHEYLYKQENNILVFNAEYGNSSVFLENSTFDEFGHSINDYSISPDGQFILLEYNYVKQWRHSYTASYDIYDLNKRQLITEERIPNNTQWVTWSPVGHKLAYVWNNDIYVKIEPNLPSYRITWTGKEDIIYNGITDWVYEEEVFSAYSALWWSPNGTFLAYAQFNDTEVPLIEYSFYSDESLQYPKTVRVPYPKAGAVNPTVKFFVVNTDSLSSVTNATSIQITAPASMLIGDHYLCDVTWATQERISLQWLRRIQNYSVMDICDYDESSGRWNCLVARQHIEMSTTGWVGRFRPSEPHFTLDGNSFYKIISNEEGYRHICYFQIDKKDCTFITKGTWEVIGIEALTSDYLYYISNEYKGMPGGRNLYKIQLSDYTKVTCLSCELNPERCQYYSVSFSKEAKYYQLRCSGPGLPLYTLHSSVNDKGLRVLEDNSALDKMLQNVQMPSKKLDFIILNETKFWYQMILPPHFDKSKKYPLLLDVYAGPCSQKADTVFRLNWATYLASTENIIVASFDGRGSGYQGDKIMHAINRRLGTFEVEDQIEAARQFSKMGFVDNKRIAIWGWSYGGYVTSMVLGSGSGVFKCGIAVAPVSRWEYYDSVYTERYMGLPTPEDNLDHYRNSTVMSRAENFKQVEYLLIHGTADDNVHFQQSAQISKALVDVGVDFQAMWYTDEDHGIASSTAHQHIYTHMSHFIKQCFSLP
Where [3] appears, read: untargeted HPLC–Chip–MS/MS, × = detected.
[4] abbreviates: differentiated Caco-2, AP to BL, peptide alone, 500 μM in AP, 37 °C, AP pH 6.0, BL pH 7.4.
Setting [5] is: differentiated Caco-2, AP to BL, peptide alone, 500 μM in AP, 37 °C, AP pH 6.0, BL pH 7.4, mean ± sd.
The mark [6] stands for this setting: differentiated Caco-2 on Transwell, AP to BL, peptide alone, 500 μM in AP, 37 °C, BL sampled 15–120 min, HPLC–Chip–MS/MS MRM, mean ± sd, three independent experiments.
Where [7] appears, read: differentiated Caco-2, AP to BL, mixture with P3 and P5, each 500 μM in AP, 37 °C.
Where [8] appears, read: differentiated Caco-2, AP to BL, mixture with P3 and P5, each 500 μM in AP, 37 °C, mean ± sd.

Results on 2 substances are retold here after article PMC7997369, “Assessment of the Multifunctional Behavior of Lupin Peptide P7 and Its Metabolite Using an Integrated Strategy” (Journal of Agricultural and Food Chemistry, 2020).

“And” between values parts separate entries of the source, which are not always exact repeats. Equal entries are not always repeated. No end group written: not given here.

Chain of DPP-IV (P27487 whole entry): as above

Take LTFPG [LTFPG]: the “detected at the AP side, P7 tested within a mixture” value in data set [1] (setting [3]) is recorded as “×”. Also, the results for the “amount in the BL compartment after 60 min, peptide alone” value in data set [1] (setting [4]) and in data set [1] (setting [5]) were 0.412 nmol and 0.22 ± 0.003 µg, respectively. Also, the “lag period for transport, peptide alone” value in data set [1] (differentiated Caco-2, AP to BL, peptide alone, 500 μM in AP, AP pH 6.0, BL pH 7.4, 37 °C) is recorded as “without a lag period”. For the same substance, the “rate of transport, peptide alone” value in data set [1] (setting [6]) is 3.7 ± 0.8 ng mL^–1 min^–1. In addition, the “transport in the presence of wortmannin” value in data set [1] (mature Caco-2 cells, wortmannin, inhibitor of the transcellular passage) is reported as “transported also in the presence of wortmannin”. Further, the “hydrolysis of P7 by DPP-IV (formation of LTFPG)” value on DPP-IV is “clearly detectable after 2 h of incubation”.

Turning to LTFPGSAED [P7], the IC50 (as a rule, the concentration at which inhibition is half-maximal) in data set [2] is 228 µM. In addition, the “detected at the AP side, P7 tested as individual species (alone)” value in data set [1] (AP solutions of differentiated Caco-2 at the end of the transport experiment, untargeted HPLC–Chip–MS/MS, × = detected) was “×”. The “detected at the AP side, P7 tested within a mixture” value in data set [1] (setting [3]) is given as “×”. Also, in data set [1] (after 60 min of incubation), the “fold higher amount in BL when tested alone than in the mixture” value is “about 4 fold”. For the same substance, the “amount in the BL compartment after 60 min, P7 in the mixture” value in data set [1] (setting [7]) amounted to 0.064 nmol; in data set [1] (setting [8]), 0.06 ± 0.003 µg. For the same substance, the results for the “absorbed amount after 2 h, P7 in the mixture” value in data set [1] (setting [7]) and in data set [1] (setting [8]) were 0.235 nmol and 0.22 ± 0.5 µg, respectively. In addition, in data set [1] (differentiated Caco-2, AP to BL, mixture with P3 and P5, each 500 μM in AP, AP pH 6.0, BL pH 7.4, 37 °C), the “lag period for transport, P7 in a mixture” value was 27.7 min and 27 min. In addition, the “amount in the BL compartment after 60 min, peptide alone” value worked out at 0.278 nmol in data set [1] (setting [4]) and 0.26 ± 0.02 µg in data set [1] (setting [5]). Also, in data set [1] (differentiated Caco-2 on Transwell, AP to BL, mixture with P3 and P5, each 500 μM in AP, AP pH 6.0, BL pH 7.4, 37 °C, BL sampled 15–120 min, HPLC–Chip–MS/MS MRM, mean ± sd, three independent experiments), the “rate of transport, P7 in a mixture” value came out at 1.98 ± 0.21 ng mL^–1 min^–1. In data set [1] (setting [6]), the “rate of transport, peptide alone” value stood at 4.2 ± 0.6 ng mL^–1 min^–1. Moreover, at DPP-IV, the “hydrolysis of P7 by DPP-IV (formation of LTFPG)” value was “subjected to DPP-IV hydrolysis”.
